Structures can show the parent of a compound that is named as a salt.

The data set is described as follows: Stability on storage: HPLC assay for API, impurities and degradants (Examples 1-4). To be noted: period of 4 weeks, 2-8° C. to 60° C. It is filed as physicochemical. The method, then:
(§1) The injection volume was 10 μL.
as §1

For the compound `Cc1ccc(N(CC2=NCCN2)c2cccc(O)c2)cc1` [phentolamine mesylate], the stability in water result is on record as “degrades rapidly”.

The values above are taken from patent US12721810B2, “Aqueous ophthalmic solutions of phentolamine and medical uses thereof” (Opus Genetics, Inc., priority 2013, dated 2026).
